The source of these data is patent EP0286491B1, “Antimalarial aminoquinoline derivatives, method for their preparation and pharmaceutical composition containing them” (LA REGION WALLONNE, priority 1987, dated 1988).

A short description of series [1]: Acute toxicity after a single i.v. injection in non-infected mice. In kind it is in vivo. Particulars: for toxicité aiguë compared with Pq: qualitative comparison with primaquine; for LD50 / MTD: mouse, in vivo, iv; for LD50: mice, read-out: dose léthale 50 % (LD₅₀); for MTD: highest dose with weight loss <= 5 % over five days, read-out: dose maximale tolérée (MTD). From the text:
La toxicité aiguë en fonction de la dose unique administrée est déterminée sur des souris de 18 à 22 g. Une série de dilutions de chaque composé est injectée par voie intraveineuse à des groupes de 10 souris.
^a : les dérivés sont administrés par vote i.v. trois heures après l'inoculation des sporozoïtes. Les concentrations sont toujours exprimées en mg Pq diphosphate/kg. ^b : la dose maximale tolérée est définie code la dose la plus élevée induisant une perte de poids inférieure ou égale & 5 % du poids initial pendant une période de cinq jours suivant l'injection i.v. ^c : dose léthale tuant 50 % des souris en une seule injection i.v. ^d : dose prophylactique causale permettant de guérir 50 % des souris injectées. ^e : index thérapeutique défini par le rapport LD₅₀/CPD₅₀.

The test system of series [2] is P. berghei berghei (ANKA). As to the kind of experiment: Causal prophylactic activity in the rodent malaria model (sporozoite-infected mice, single i.v. treatment 3 h after inoculation). In kind it is in vivo, souris Swiss OF1. Particulars: for activité thérapeutique compared with Pq: qualitative comparison with primaquine; for index Pq (CPD₅₀ de la Pq/CPD₅₀ du composé): ratio of CPD₅₀ of Pq to CPD₅₀ of the derivative; for CPD₅₀ (dose prophylactique causale guérissant 50 % des animaux infectés) / ED50: dose as mg Pq diphosphate/kg; for ED50: read-out: CPD₅₀ (dose prophylactique causale guérissant 50 % des animaux infectés); for index thérapeutique (LD₅₀/CPD₅₀): ratio LD₅₀/CPD₅₀. From the text: Le modèle de la malaria du rongeur, Plasmodium berghei-Anopheles stephensi-souris, mis au point par MOST, H., HERMAN, R. & SCHOENFELD, C. (1967) Am. J. Trop. Med. Hyg. 16, 572-575, permet de déterminer l'activité prophylactique causale (schizonticide tissulaire) de nouveaux composés thérapeutiques. La procédure utilisée est dérivée de celle de MOST, H. & MONTUORI, W.A. (1975) Am. J. Trop. Med. Hyg. 24, 179-182. Il s'agit du système P. berghei berghei (ANKA)- Anopheles stephensi-souris Swiss OF1. La souche ANKA de P. b. berghei est entretenue cycliquement sur Anopheles stephensi. La souche de souris Swiss OF1 est particulièrement sensible à P. b. berghei qui produit une infection toujours mortelle.
Les moustiques femelles (80 à 100 individus par préparation) sont débarassés de leurs pattes, ailes et abdomen, puis homogénéisés à 4°C à l'aide d'un potter en verre, dans du milieu M 199 (GIBCO) contenant 10 % de sérum foetal de veau. La suspension de sporozoïtes est ensuite purifiée des débris du moustique par deux centrifugations successives ( 2 min. à 50 g et 5 min. à 200 g) et le surnageant recueilli est conservé à 4°C. Après comptage dans une chambre de Petroff-Hausser, le nombre de parasites est ajusté par dilution avec le même milieu froid, à la densité de 2 x 10⁵ sporozoïtes/ml. L'ensemble de la procédure est toujours effectuée dans un maximum de 35 minutes et permet de préserver la viabilité et l'infectivité des sporozoïtes.
Un volume de 0,5 ml de la suspension contenant 10⁵ sporozoïtes est injectée i.v. aux souris Swiss OF1 femelles de 18 à 22 g utilisées pour les tests thérapeutiques.
Des groupes de 20 à 25 souris infectées comme décrit ci-dessus sont traités en une seule injection intraveineuse de primaquine diphosphate (Pq) ou des dérivés monoacyls et aminoacides de la primaquine sous formes dichlorhydrates (X-Pq) trois heures après l'inoculation des sporozoïtes. Le volume injecté est ajusté en fonction du poids de la souris, à raison de 0,5 ml pour un poids de 25 g. Les composés sont dilués dans du tampon phosphate salin (PBS) pH 7.0 et le pH est ajusté à 7.0. Les souris infectées mais non traitées (5 par groupe) reçoivent le tampon seul et servent à contrôler l'infectivité des sporozoïtes.
Les souris expérimentales sont gardées durant une période de 50 jours. Le développement de la parasitémie est suivi en examinant quotidiennement des frottis de sang, colorés 60 min. au Giemsa à 5 % dans du tampon Sörensen à pH 7,2, à partir du 5ème jour et ce jusqu'au 15ème jour. Le nombre d'animaux infectés peut ainsi être déterminé. Ces résultats permettent d'établir la survie à long terme (LTS, le nombre de souris survivantes non parasitées sur le nombre de souris infectées et traitées).
L'activité prophylactique causale (CPD₅₀) est obtenue par l'analyse des logits de la réponse (exprimée en % de LTS) en fonction de la dose (mg Pq/kg).
Les animaux infectés à l'aide de sporozoïtes de P. berghei sont traités trois heures après avec une seule injection des composés par voie intraveineuse. Ce test permet de définir l'activité prophylactique causale des composés ou la dose permettant de guérir 50 % des animaux infectés (CPD₅₀). La dose est toujours exprimée en mg de Pq diphosphate par kg.

Setting [3] is: single i.v. injection 3 h after sporozoite inoculation.
Where [4] appears, read: Plasmodium berghei, iv, single i.v. injection 3 h after sporozoite inoculation.

Entries after “also recorded” stand apart in the source; their conditions may differ.

For the compound `COc1cc(NC(C)CCCNC(=O)[C@@H](C)N)c2ncccc2c1` (stereo partly drawn) [D-alanine, N-1-D-alanyl, N-4-(méthoxy-6-quinolinyl-8)pentanediamine-1,4], the “toxicité aiguë compared with Pq” value in series [1] was “très faible toxicité”.

For `COc1cc(NC(C)CCCNC(=O)[C@H](C)N)c2ncccc2c1` (stereo partly drawn) [L-alanyl-Pq, N-1-L-alanyl, N-4-(méthoxy-6-quinolinyl-8) pentanediamine-1,4], in series [1], the “toxicité aiguë compared with Pq” value is “meilleure réduction de toxicité; also recorded: moins toxique que la primaquine”. Moreover, in series [2], the “activité thérapeutique compared with Pq” value is on record as “presque quatre fois supérieure à celle de la primaquine base” and the “index Pq (CPD₅₀ de la Pq/CPD₅₀ du composé)” value (shortened to “index Pq”) is listed as 3,0. In series [2] (setting [3]), the dose minimale effective stood at 4 mg Pq/kg, the “dose totalement curative (100 %)” value was 9,9 mg Pq/kg and the “CPD₅₀ (dose prophylactique causale guérissant 50 % des animaux infectés)” value is recorded as 6,3 mg Pq/kg.

As for `COc1cc(NC(C)CCCNC(=O)[C@@H](N)CCC(=O)O)c2ncccc2c1` (stereo partly drawn) [L-glutamyl-Pq, N-1-L-glutamyl, N-4-(méthoxy-6-quinolinyl-8) pentadiamine-1,4], in series [1] (fold higher than Pq), the “LD₅₀ relative to the LD₅₀ of Pq” value amounted to 4 x and the “MTD relative to the MTD of Pq” value is given as 5 x. In addition, in series [1] (single i.v. injection), the LD50 was 136 mg/kg and the MTD is 124 mg/kg. Besides, in series [1], the “toxicité aiguë compared with Pq” value is “le moins toxique; also recorded: meilleure réduction de toxicité”. Also, the ED50 in series [2] (setting [4]) came out at 8.5 mg/kg. Also, in series [2], the “index thérapeutique (LD₅₀/CPD₅₀)” value is on record as 16,1 and the “index Pq” value is on record as 2,2.

Regarding `COc1cc(NC(C)CCCNC(=O)[C@H](CC(C)C)NC(=O)[C@H](C)N)c2ncccc2c1` (stereo partly drawn) [L-leucyl-L-alanyl-Pq, N-1-L-Alanyl-L-Leucyl, N-4-(Méthoxy-6-quinolinyl-8) pentanediamine-1,4], in series [1], the “toxicité aiguë compared with Pq” value is “meilleure réduction de toxicité”.

For the compound `COc1cc(NC(C)CCCNC(=O)[C@@H](N)CC(C)C)c2ncccc2c1` (stereo partly drawn) [L-leucyl-Pq, N-1-L-leucyl, N-4-(méthoxy-6-quinolinyl-8)pentanediamine-1,4], the “index Pq” value in series [2] was 1,2. Moreover, in series [2] (setting [3]), the dose minimale effective is 7,6 mg Pq/kg and the “dose totalement curative (100 %)” value worked out at 30 mg Pq/kg. Besides, in series [2] (single i.v. injection 3 h after sporozoite inoculation, unit printed without mg), the CPD₅₀ is reported as 16,2 Pq/kg.

Consider `COc1cc(NC(C)CCCNC(=O)[C@@H](N)CCCCN)c2ncccc2c1` (stereo partly drawn) [L-lysyl-Pq], for which the “plus toxique que la primaquine” value in series [1] (acute toxicity, fold versus primaquine) is recorded as 3 x. In addition, in series [1] (single i.v. injection), the dose minimale toxique is reported as 8,2 mg Pq/kg. The “index Pq” value in series [2] was 4,8. Moreover, in series [2] (setting [3]), the dose minimale effective is on record as 1,7 mg Pq/kg, the “dose totalement curative (100 %)” value is given as 8,2 mg Pq/kg and the “CPD₅₀ (dose prophylactique causale guérissant 50 % des animaux infectés)” value is 3,9 mg Pq/kg.

With `COc1cc(NC(C)CCCNC(=O)[C@@H](N)Cc2ccccc2)c2ncccc2c1` (stereo partly drawn) [L-phenylalanyl-Pq, N-1-L-phénylalanyl , N-4(methoxy-6-quinolinyl-8) pentanediamine-1,4], the “toxicité aiguë compared with Pq” value in series [1] is “voisine de celle de la Pq”. In addition, the “index Pq” value in series [2] is given as 3,1. Besides, in series [2] (setting [3]), the dose minimale effective is given as 1,8 mg Pq/kg, the “dose totalement curative (100 %)” value is on record as 21,3 mg Pq/kg and the “CPD₅₀ (dose prophylactique causale guérissant 50 % des animaux infectés)” value is recorded as 6,1 mg Pq/kg.

Turning to `COc1cc(NC(C)CCCN)c2ncccc2c1` (stereo not shown) [Pq, 6-méthoxy-8-(4-amino-1-méthylbutylamino)-quinoléine, reference compound], in series [1] (dose from which toxicity is seen, i.v.), the “toxicité dès” value is at least 25 mg/kg. In series [1] (single i.v. injection), the LD50 was 31 mg/kg and the MTD turned out to be 25.7 mg/kg. Also, in series [2] (setting [4]), the ED50 worked out at 18.7 mg/kg. The minimal effective dose in series [2] (Plasmodium berghei, iv, single i.v. injection 3 h after sporozoite inoculation, read-out: dose minimale effective) was 10.4 mg/kg. Also, the “activité thérapeutique” value in series [2] (at 25 mg/kg i.v.) came to 75%. Further, the “index thérapeutique (LD₅₀/CPD₅₀)” value in series [2] was 1,7.

As for `COc1cc(NC(C)CCCNC(=O)CCCC(=O)O)c2ncccc2c1` (stereo not shown) [glutarryl-Pq], the “activité thérapeutique compared with Pq” value in series [2] is “nettement moins actifs que la Pq”.

Regarding `COc1cc(NC(C)CCCNC(=O)C(C)NC(=O)CCC(=O)O)c2ncccc2c1` [succinyl-L-alanyl-Pq], the “activité thérapeutique compared with Pq” value in series [2] is given as “nettement moins actifs que la Pq”.

On to `COc1cc(NC(C)CCCNC(=O)C(Cc2ccccc2)NC(=O)CCC(=O)O)c2ncccc2c1` [succinyl-L-phenylalanyl-Pq], for which the “activité thérapeutique compared with Pq” value in series [2] was “nettement moins actifs que la Pq”.

Turning to L-glutamine, the “index Pq” value in series [2] is given as 1,9. Moreover, the “CPD₅₀ (dose prophylactique causale guérissant 50 % des animaux infectés)” value in series [2] (setting [3]) turned out to be 10 mg Pq/kg.
